Results reported in PubChem BioAssay (NCI).
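Briefly, cells in 96-well plates were exposed to five compound concentrations for 48 h, and endpoints were estimated by linear interpolation. GI50: concentration for 50% inhibition of growth. At the TGI there is no net growth.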

How the values were obtained:
Assay in all cases: NCI anticancer screen, dose series, 48 h
786-0 renal = test system: 786-0 renal
A549 NSCLC = test system: A549 NSCLC
ACHN renal = test system: ACHN renal
CAKI-1 renal = test system: CAKI-1 renal
CCRF-CEM leukemia = test system: CCRF-CEM leukemia
COLO 205 colon = test system: COLO 205 colon
DU-145 prostate = test system: DU-145 prostate
EKVX NSCLC = test system: EKVX NSCLC
HCC-2998 colon = test system: HCC-2998 colon
HCT-116 colon = test system: HCT-116 colon
HCT-15 colon = test system: HCT-15 colon
HL-60(TB) leukemia = test system: HL-60(TB) leukemia
HOP-62 NSCLC = test system: HOP-62 NSCLC
HOP-92 NSCLC = test system: HOP-92 NSCLC
HS 578T breast = test system: HS 578T breast
HT29 colon = test system: HT29 colon
IGROV1 ovarian = test system: IGROV1 ovarian
K-562 leukemia = test system: K-562 leukemia
KM12 colon = test system: KM12 colon
LOX IMVI melanoma = test system: LOX IMVI melanoma
M14 melanoma = test system: M14 melanoma
MALME-3M melanoma = test system: MALME-3M melanoma
MCF7 breast = test system: MCF7 breast
MDA-MB-231 breast = test system: MDA-MB-231 breast
MDA-MB-435 = test system: MDA-MB-435
MOLT-4 leukemia = test system: MOLT-4 leukemia
NCI-H226 lung = test system: NCI-H226 lung
NCI-H23 lung = test system: NCI-H23 lung
NCI-H460 lung = test system: NCI-H460 lung
NCI-H522 lung = test system: NCI-H522 lung
NCI/ADR-RES ovarian = test system: NCI/ADR-RES ovarian
OVCAR-3 ovarian = test system: OVCAR-3 ovarian
OVCAR-4 ovarian = test system: OVCAR-4 ovarian
OVCAR-5 ovarian = test system: OVCAR-5 ovarian
OVCAR-8 ovarian = test system: OVCAR-8 ovarian
PC-3 prostate = test system: PC-3 prostate
RPMI-8226 leukemia = test system: RPMI-8226 leukemia
RXF 393 renal = test system: RXF 393 renal
SF-268 CNS = test system: SF-268 CNS
SF-295 CNS = test system: SF-295 CNS
SF-539 CNS = test system: SF-539 CNS
SK-MEL-2 melanoma = test system: SK-MEL-2 melanoma
SK-MEL-28 melanoma = test system: SK-MEL-28 melanoma
SK-MEL-5 melanoma = test system: SK-MEL-5 melanoma
SK-OV-3 ovarian = test system: SK-OV-3 ovarian
SN12C renal = test system: SN12C renal
SNB-19 CNS = test system: SNB-19 CNS
SNB-75 CNS = test system: SNB-75 CNS
SR leukemia = test system: SR leukemia
SW-620 colon = test system: SW-620 colon
T-47D breast = test system: T-47D breast
TK-10 renal = test system: TK-10 renal
U251 CNS = test system: U251 CNS
UACC-257 melanoma = test system: UACC-257 melanoma
UACC-62 melanoma = test system: UACC-62 melanoma
UO-31 renal = test system: UO-31 renal

For `C=C1CCC2C(/C=C(\C)CCC1O)OC(=O)C2C` (configuration not stated), which GI50 (786-0 renal) is on record?
The GI50 was over 100 µM.

What about the TGI (786-0 renal) of the same compound?
The TGI was over 100 µM.

And the GI50 (A549 NSCLC)?
The GI50 was over 100 µM.

What about the TGI (A549 NSCLC) of the same compound?
The TGI was over 100 µM.

And the GI50 (ACHN renal)?
Its GI50 is over 100 µM.

And the TGI (ACHN renal)?
Its TGI is over 100 µM.

And the GI50 (CAKI-1 renal)?
Its GI50 is over 100 µM.

What about the TGI (CAKI-1 renal) of the same compound?
Its TGI is over 100 µM.

And the GI50 (CCRF-CEM leukemia)?
The GI50 was 31.3 µM.

And the TGI (CCRF-CEM leukemia)?
Its TGI is over 100 µM.

And the GI50 (COLO 205 colon)?
Its GI50 is over 100 µM.

And the TGI (COLO 205 colon)?
The TGI was over 100 µM.

And the GI50 (DU-145 prostate)?
Its GI50 is over 100 µM.

What about the TGI (DU-145 prostate) of the same compound?
The TGI was over 100 µM.

And the GI50 (EKVX NSCLC)?
The GI50 was over 100 µM.

What about the TGI (EKVX NSCLC) of the same compound?
The TGI was over 100 µM.

What about the GI50 (HCC-2998 colon) of the same compound?
The GI50 was over 100 µM.

What about the TGI (HCC-2998 colon) of the same compound?
The TGI was over 100 µM.

And the GI50 (HCT-116 colon)?
The GI50 was over 100 µM.

And the TGI (HCT-116 colon)?
Its TGI is over 100 µM.

And the GI50 (HCT-15 colon)?
Its GI50 is over 100 µM.

And the TGI (HCT-15 colon)?
The TGI was over 100 µM.

And the GI50 (HL-60(TB) leukemia)?
Its GI50 is 51.5 µM.

What about the TGI (HL-60(TB) leukemia) of the same compound?
The TGI was over 100 µM.

What about the GI50 (HOP-62 NSCLC) of the same compound?
Its GI50 is over 100 µM.

What about the TGI (HOP-62 NSCLC) of the same compound?
The TGI was over 100 µM.

What about the GI50 (HOP-92 NSCLC) of the same compound?
Its GI50 is over 100 µM.

And the TGI (HOP-92 NSCLC)?
The TGI was over 100 µM.

And the GI50 (HS 578T breast)?
Its GI50 is over 100 µM.

And the TGI (HS 578T breast)?
The TGI was over 100 µM.

What about the GI50 (HT29 colon) of the same compound?
The GI50 was over 100 µM.

What about the TGI (HT29 colon) of the same compound?
The TGI was over 100 µM.

And the GI50 (IGROV1 ovarian)?
The GI50 was over 100 µM.

What about the TGI (IGROV1 ovarian) of the same compound?
Its TGI is over 100 µM.

And the GI50 (K-562 leukemia)?
Its GI50 is over 100 µM.

What about the TGI (K-562 leukemia) of the same compound?
Its TGI is over 100 µM.

And the GI50 (KM12 colon)?
Its GI50 is over 100 µM.

What about the TGI (KM12 colon) of the same compound?
The TGI was over 100 µM.

And the GI50 (LOX IMVI melanoma)?
Its GI50 is over 100 µM.

What about the TGI (LOX IMVI melanoma) of the same compound?
Its TGI is over 100 µM.

And the GI50 (M14 melanoma)?
Its GI50 is over 100 µM.

What about the TGI (M14 melanoma) of the same compound?
Its TGI is over 100 µM.

What about the GI50 (MALME-3M melanoma) of the same compound?
The GI50 was over 100 µM.

And the TGI (MALME-3M melanoma)?
Its TGI is over 100 µM.

And the GI50 (MCF7 breast)?
Its GI50 is 82.2 µM.

And the TGI (MCF7 breast)?
The TGI was over 100 µM.

And the GI50 (MDA-MB-231 breast)?
The GI50 was over 100 µM.

What about the TGI (MDA-MB-231 breast) of the same compound?
Its TGI is over 100 µM.

What about the GI50 (MDA-MB-435) of the same compound?
The GI50 was over 100 µM.

And the TGI (MDA-MB-435)?
Its TGI is over 100 µM.

And the GI50 (MOLT-4 leukemia)?
Its GI50 is 19.6 µM.

What about the TGI (MOLT-4 leukemia) of the same compound?
The TGI was 58.2 µM.

And the GI50 (NCI-H226 lung)?
Its GI50 is over 100 µM.

And the TGI (NCI-H226 lung)?
Its TGI is over 100 µM.

What about the GI50 (NCI-H23 lung) of the same compound?
Its GI50 is over 100 µM.

What about the TGI (NCI-H23 lung) of the same compound?
The TGI was over 100 µM.

And the GI50 (NCI-H460 lung)?
The GI50 was over 100 µM.

And the TGI (NCI-H460 lung)?
Its TGI is over 100 µM.

And the GI50 (NCI-H522 lung)?
Its GI50 is over 100 µM.

What about the TGI (NCI-H522 lung) of the same compound?
The TGI was over 100 µM.

And the GI50 (NCI/ADR-RES ovarian)?
The GI50 was over 100 µM.

And the TGI (NCI/ADR-RES ovarian)?
The TGI was over 100 µM.

What about the GI50 (OVCAR-3 ovarian) of the same compound?
Its GI50 is over 100 µM.

And the TGI (OVCAR-3 ovarian)?
Its TGI is over 100 µM.

And the GI50 (OVCAR-4 ovarian)?
Its GI50 is over 100 µM.

What about the TGI (OVCAR-4 ovarian) of the same compound?
Its TGI is over 100 µM.

And the GI50 (OVCAR-5 ovarian)?
The GI50 was over 100 µM.

What about the TGI (OVCAR-5 ovarian) of the same compound?
Its TGI is over 100 µM.

And the GI50 (OVCAR-8 ovarian)?
Its GI50 is over 100 µM.

What about the TGI (OVCAR-8 ovarian) of the same compound?
Its TGI is over 100 µM.

What about the GI50 (PC-3 prostate) of the same compound?
Its GI50 is over 100 µM.

And the TGI (PC-3 prostate)?
The TGI was over 100 µM.

What about the GI50 (RPMI-8226 leukemia) of the same compound?
Its GI50 is 90.4 µM.

What about the TGI (RPMI-8226 leukemia) of the same compound?
The TGI was over 100 µM.

And the GI50 (RXF 393 renal)?
Its GI50 is 23.2 µM.

And the TGI (RXF 393 renal)?
The TGI was over 100 µM.

What about the GI50 (SF-268 CNS) of the same compound?
Its GI50 is over 100 µM.

What about the TGI (SF-268 CNS) of the same compound?
Its TGI is over 100 µM.

And the GI50 (SF-295 CNS)?
The GI50 was over 100 µM.

And the TGI (SF-295 CNS)?
Its TGI is over 100 µM.

What about the GI50 (SF-539 CNS) of the same compound?
The GI50 was over 100 µM.

And the TGI (SF-539 CNS)?
Its TGI is over 100 µM.

And the GI50 (SK-MEL-2 melanoma)?
Its GI50 is over 100 µM.

And the TGI (SK-MEL-2 melanoma)?
Its TGI is over 100 µM.

What about the GI50 (SK-MEL-28 melanoma) of the same compound?
Its GI50 is over 100 µM.

And the TGI (SK-MEL-28 melanoma)?
The TGI was over 100 µM.

What about the GI50 (SK-MEL-5 melanoma) of the same compound?
Its GI50 is over 100 µM.

What about the TGI (SK-MEL-5 melanoma) of the same compound?
The TGI was over 100 µM.

What about the GI50 (SK-OV-3 ovarian) of the same compound?
The GI50 was over 100 µM.

And the TGI (SK-OV-3 ovarian)?
The TGI was over 100 µM.

And the GI50 (SN12C renal)?
The GI50 was over 100 µM.

And the TGI (SN12C renal)?
Its TGI is over 100 µM.

What about the GI50 (SNB-19 CNS) of the same compound?
Its GI50 is over 100 µM.

What about the TGI (SNB-19 CNS) of the same compound?
The TGI was over 100 µM.

What about the GI50 (SNB-75 CNS) of the same compound?
The GI50 was over 100 µM.

And the TGI (SNB-75 CNS)?
Its TGI is over 100 µM.

And the GI50 (SR leukemia)?
Its GI50 is over 100 µM.

And the TGI (SR leukemia)?
Its TGI is over 100 µM.

What about the GI50 (SW-620 colon) of the same compound?
The GI50 was over 100 µM.

What about the TGI (SW-620 colon) of the same compound?
Its TGI is over 100 µM.

And the GI50 (T-47D breast)?
The GI50 was over 100 µM.

And the TGI (T-47D breast)?
Its TGI is over 100 µM.

What about the GI50 (TK-10 renal) of the same compound?
The GI50 was over 100 µM.

And the TGI (TK-10 renal)?
Its TGI is over 100 µM.

And the GI50 (U251 CNS)?
Its GI50 is over 100 µM.

And the TGI (U251 CNS)?
Its TGI is over 100 µM.

And the GI50 (UACC-257 melanoma)?
Its GI50 is over 100 µM.

What about the TGI (UACC-257 melanoma) of the same compound?
Its TGI is over 100 µM.

What about the GI50 (UACC-62 melanoma) of the same compound?
Its GI50 is over 100 µM.

And the TGI (UACC-62 melanoma)?
The TGI was over 100 µM.

And the GI50 (UO-31 renal)?
Its GI50 is over 100 µM.

What about the TGI (UO-31 renal) of the same compound?
The TGI was over 100 µM.
